Reference: patent EP0358152A1, “Diazine-substituted 1-adamantanes, process for their preparation, and their use as medicaments” (priority 1988, dated 1990)
Several values for one entry are separate records, joined by “and”; a condition that tells them apart may be missing. Equal entries are not always repeated.

Columns and labels:
[1] = test system: Subtyp H3N2 A/Philippines 2/82; format: cell-based, Influenzaviren Typ A
[2] = test system: Subtyp H2N2 A/Singapore 1/57; format: cell-based, Influenzaviren Typ A
[3] = test system: Subtyp H1N1 A/Brasil 11/78; format: cell-based, Influenzaviren Typ A
[4] = test system: Subtyp H3N2 A/Hongkong 1/68; format: cell-based, Influenzaviren Typ A
Typ B B/Singapore 222/79 = format: cell-based, Influenzaviren Typ B
A/Krasnodar 101/59 = format: cell-based, Influenzaviren Typ A
[5] = test system: Influenzavirus Typ A Subtyp H1N1 A/Taiwan 1/86; format: cell-based
Influenzaviren vom Typ B = experiment: Inhibitory effect on influenza viruses of type B; format: cell-based; settings: statement in words

## c1cnc(C23CC4CC(CC(C4)C2)C3)cn1 [2-(Adamant-1-yl)-pyrazin, 2-(Adamant-1-yl-)-pyrazin]
[1]
  ID50 mit Wirkstoff (log 10): 5,5 log 10
  Titerdifferenz (log 10): 0,33 log 10 and 0,83 log 10
[2]
  Titerdifferenz (log 10): 1,51 log 10 and 1,33 log 10 and 1,17 log 10

## Nc1nccc(C23CC4CC(CC(C4)C2)C3)n1 [4-(Adamant-1-yl)-2-amino-pyrimidin, 4-(Adamant-1-yl)-2-aminopyrimidin]
[3]
  Titerdifferenz (log 10): 2,8 log 10 and 2,0 log 10
[2]
  Titerdifferenz (log 10): 1,55 log 10 and 1,67 log 10

## c1cc(C23CC4CC(CC(C4)C2)C3)ncn1 [4-(Adamant-1-yl)-pyrimidin]
[1]
  ID50 mit Wirkstoff (log 10): 5,17 log 10
[2]
  Titerdifferenz (log 10): 1,33 log 10 and 1,5 log 10 and 1,34 log 10

## Cc1cncc(C23CC4CC(CC(C4)C2)C3)n1 [6-(Adamant-1-yl)-2-methyl-pyrazin, 6-(Adamant-1-yl)-2-methylpyrazin]
[3]
  ID50 mit Wirkstoff (log 10): 3,33 log 10 and 3,67 log 10
  Titerdifferenz (log 10): 1,97 log 10 and 1,66 log 10

## Cc1cc(C23CC4CC(CC(C4)C2)C3)ncn1 [6-(Adamant-1-yl)-4-methyl-pyrimidin, 6-(Adamant-1-yl)-4-methylpyrimidin]
[4]
  ID50 mit Wirkstoff (log 10): 3,83 log 10
  Titerdifferenz (log 10): 0,92 log 10
Typ B B/Singapore 222/79
  ID50 mit Wirkstoff (log 10): 5,67 log 10
  Titerdifferenz (log 10): 0,66 log 10 and 0,5 log 10
[3]
  ID50 mit Wirkstoff (log 10): 3,83 log 10 and 3,33 log 10 and 3,0 log 10
A/Krasnodar 101/59
  ID50 mit Wirkstoff (log 10): 2,5 log 10
  Titerdifferenz (log 10): 2,5 log 10
[1]
  ID50 mit Wirkstoff (log 10): 5,0 log 10 and 5,67 log 10

## CC(N)C12CC3CC(CC(C3)C1)C2.Cl (stereo not drawn) [Rimantadin, α-Methyl-1-adamantanmethylaminhydrochlorid]
[5]
  Titerreduktion (log 10): 1,5 log 10 and 1,84 log 10
Influenzaviren vom Typ B
  Hemmwirkung gegenüber Influenzaviren vom Typ B: nicht spezifisch wirksam
[1]
  Titerreduktion (log 10): 0,17 log 10
[2]
  ID₅₀ (log 10) mit Wirkstoff: 2,5 log 10
